The values below come from patent publication US8563257B2, “Sensitive and rapid methods of using chimeric receptors to identify autoimmune disease and assess disease severity” (Diagnostic Hybrids, Inc., priority 2000, dated 2013).

Each structure is given as a SMILES string. Several values for one entry are separate records, joined by “and”; a condition that tells them apart may be missing. Equal values may be shown once. Entries after “also recorded” stand apart in the source; their conditions may differ.

Experiment [1] has as its system CHO-RMc4luc cells. In words: Alternate glucocorticoids vs. dexamethasone in the non-starved CHO-RMc4 assay. The experiment is classed as cell-based, Chinese hamster. As to conditions: for signal intensity (RLU) compared to 40 μM dexamethasone: FIG. 17. The method, then:
The data was collected in accordance with the protocol outlined in Example 17. The data was calculated as the difference (Δ) in RLU values or SRR % values for each glucocorticoid (GC) concentration by subtracting the RLU value or SRR % value for the Normal control at that concentration from the RLU value or SRR % value for the Positive control at that concentration, respectively.
Four GCs were examined in this study: i) Prednisone (Sigma); ii) Hydrocortisone (Sigma); iii) Fluticasone Propionate (Sigma); and iv) Cortisone (Sigma). A stock concentration (100 mM) of each GC was made in DMSO. 1:10 (10 mM) and 1:100 (1 mM) dilutions, in DMSO, were then made from the 100 mM stock. All DMSO/GC stocks were clear with no visible precipitate.
Growth Media containing different concentrations of each GC were made as follows: i) 100 μM GC Medium: 5 μL of 100 mM GC Stock+5 mL SR097 (w/o Dex); ii) 50 μM GC Medium: 2.5 μL of 100 mM GC Stock+5 mL SR097 (w/o Dex); iii) 10 μM GC Medium: 5 μL of 10 mM GC Stock+5 mL SR097 (w/o Dex); iii) 1 μM GC Medium: 5 μL of 1 mM GC Stock+5 mL SR097 (w/o Dex); and iv) 0.1 μM GC Medium: 0.5 μL of 1 mM GC Stock+5 mL SR097 (w/o Dex). […] Additional controls included Growth Medium containing 1 μl/ml dimethylsulfoxide (DMSO) as a solvent control and Growth Medium without any glucocorticoids.
Each assay was performed by using two (2) microwell plates for each glucocorticoid tested. The sample layouts for each plate are identified below: […]

Experiment [2] concerns CHO-RMc4luc cells. The experiment in a line: Effect of dexamethasone on starved CHO-RMc4luc cells (luciferase). The experiment is classed as cell-based, Chinese hamster. As to conditions: for % of S/B, Patient #18 Serum: 0 uM = 100; for RLU, Patient #18 Serum, Average / S/B, Patient #18 Serum / RLU, Patient #18 Serum, Test 1-3 / RLU, Reference Serum, Avg / RLU, Reference Serum, Test 1-3: starved cells; for RLU, Patient #18 Serum, Test 1-3 / RLU, Reference Serum, Test 1-3: listed as DEX. The method, then: CHO-Rluc (041307A) and CHO-RMc4luc (062707, P8, 3e6/ml) cells were each brought up in 5 ml CHO growth media.
The cells were then rinsed with reaction buffer and serum (diluted 1:11) was added to 100 μl of reaction buffer already in the well. Serums used were: i) reference 121506R; ii) PC 121506P; and iii) patient #18 TSI serum.
After 4 hours of induction the plates were lysed with 75 ul of Bright Glo®, lysed for 5 minutes, and then read on a Veritas luminometer.

Where [3] appears, read: glucocorticoid 0.1 μM in Growth Medium.
[4] abbreviates: glucocorticoid 1 μM in Growth Medium.
Setting [5] is: glucocorticoid 10 μM in Growth Medium.
[6] abbreviates: glucocorticoid 50 μM in Growth Medium.
The mark [7] stands for this setting: glucocorticoid 100 μM in Growth Medium.
The mark [8] stands for this setting: 40 μM in Growth Medium (control).

`C[C@]12CCC(=O)C=C1CC[C@@H]1[C@@H]2C(=O)C[C@@]2(C)[C@H]1CC[C@]2(O)C(=O)CO` [Cortisone]: the “signal intensity (RLU) compared to 40 μM dexamethasone” value with CHO-RMc4luc cells [1] is “equivalent to dexamethasone; also recorded: equal signal intensities”. The “Δ (positive - normal) RLU” value in the experiment with CHO-RMc4luc cells [1] (setting [3]) came to 10494 RLU; with CHO-RMc4luc cells [1] (setting [4]) it was 9474 RLU; in the experiment on CHO-RMc4luc cells [1] (setting [5]), 9847 RLU; in the experiment with CHO-RMc4luc cells [1] (setting [6]) it was 8738 RLU; in the experiment on CHO-RMc4luc cells [1] (setting [7]) it was 8106 RLU. Besides, the “Δ (positive - normal) SRR % s” value came to 169% with CHO-RMc4luc cells [1] (setting [3]); 151% in the experiment with CHO-RMc4luc cells [1] (setting [4]); 151% in the experiment on CHO-RMc4luc cells [1] (setting [5]); 162% in the experiment on CHO-RMc4luc cells [1] (setting [6]); 176% in the experiment with CHO-RMc4luc cells [1] (setting [7]).
`C[C@@H]1C[C@H]2[C@@H]3CCC4=CC(=O)C=C[C@]4(C)[C@@]3(F)[C@@H](O)C[C@]2(C)[C@@]1(O)C(=O)CO` [Dexamethasone, dexamethasone]: in the experiment with CHO-RMc4luc cells [1] (setting [8]), the “Δ (positive - normal) RLU” value worked out at 9375 RLU and the “Δ (positive - normal) SRR % s” value is given as 282%. For the same compound, in the experiment on CHO-RMc4luc cells [2] (DEX 12.5 uM), the “% of S/B, Patient #18 Serum” value is on record as 180%; the “RLU, Patient #18 Serum, Average” value came out at 5165 RLU; the “S/B, Patient #18 Serum” value is 39.8; the “RLU, Patient #18 Serum, Test 1-3” value is 4710 RLU and 5456 RLU and 5330 RLU. In addition, in the experiment with CHO-RMc4luc cells [2] (DEX 25 uM), the “% of S/B, Patient #18 Serum” value was found to be 183%; the “RLU, Patient #18 Serum, Average” value worked out at 5194 RLU; the “RLU, Reference Serum, Avg” value turned out to be 127 RLU; the “S/B, Patient #18 Serum” value is listed as 40.6. In the experiment with CHO-RMc4luc cells [2] (DEX 25 uM), the “RLU, Patient #18 Serum, Test 1-3” value is 5172 RLU and 5151 RLU and 5260 RLU; the “RLU, Reference Serum, Test 1-3” value was 129 RLU and 132 RLU. Also, in the experiment with CHO-RMc4luc cells [2] (DEX 40 uM), the “% of S/B, Patient #18 Serum” value amounted to 182%; the “RLU, Patient #18 Serum, Average” value was 5092 RLU; the “RLU, Reference Serum, Avg” value was determined as 126 RLU; the “S/B, Patient #18 Serum” value worked out at 40.4. Also, in the experiment on CHO-RMc4luc cells [2] (DEX 40 uM), the “RLU, Patient #18 Serum, Test 1-3” value is 5039 RLU and 5198 RLU and 5038 RLU; the “RLU, Reference Serum, Test 1-3” value was found to be 128 RLU. In the experiment with CHO-RMc4luc cells [2] (DEX 50 uM), the “% of S/B, Patient #18 Serum” value was determined as 181%; the “RLU, Patient #18 Serum, Average” value is listed as 5023 RLU; the “RLU, Reference Serum, Avg” value was 125 RLU; the “S/B, Patient #18 Serum” value came to 40.1. Further, in the experiment on CHO-RMc4luc cells [2] (DEX 50 uM), the “RLU, Patient #18 Serum, Test 1-3” value is 4861 RLU and 5298 RLU and 4909 RLU; the “RLU, Reference Serum, Test 1-3” value was found to be 135 RLU. In addition, in the experiment with CHO-RMc4luc cells [2] (DEX 100 uM), the “% of S/B, Patient #18 Serum” value came out at 140%; the “RLU, Patient #18 Serum, Average” value was found to be 3492 RLU; the “RLU, Reference Serum, Avg” value is given as 112 RLU; the “S/B, Patient #18 Serum” value is recorded as 31.1. The “RLU, Patient #18 Serum, Test 1-3” value in the experiment on CHO-RMc4luc cells [2] (DEX 100 uM) is 3542 RLU and 3414 RLU and 3521 RLU. Moreover, in the experiment on CHO-RMc4luc cells [2] (DEX 12. uM), the “RLU, Reference Serum, Avg” value is listed as 129 RLU; the “RLU, Reference Serum, Test 1-3” value was 129 RLU and 141 RLU.
Turning to `CCC(=O)O[C@]1(C(=O)SCF)[C@H](C)C[C@H]2[C@@H]3C[C@H](F)C4=CC(=O)C=C[C@]4(C)[C@@]3(F)[C@@H](O)C[C@@]21C` [Fluticasone Proprionate, Fluticasone Propionate], the “signal intensity (RLU) compared to 40 μM dexamethasone” value in the experiment on CHO-RMc4luc cells [1] was “equal signal intensities”. In addition, the “Δ (positive - normal) RLU” value is 9768 RLU with CHO-RMc4luc cells [1] (setting [3]); 8806 RLU in the experiment with CHO-RMc4luc cells [1] (setting [4]); 8774 RLU in the experiment with CHO-RMc4luc cells [1] (setting [5]); 6996 RLU in the experiment with CHO-RMc4luc cells [1] (setting [6]); 6366 RLU in the experiment on CHO-RMc4luc cells [1] (setting [7]). The “Δ (positive - normal) SRR % s” value was found to be 161% in the experiment on CHO-RMc4luc cells [1] (setting [3]); 148% in the experiment with CHO-RMc4luc cells [1] (setting [4]); 168% in the experiment on CHO-RMc4luc cells [1] (setting [5]); 137% with CHO-RMc4luc cells [1] (setting [6]); 155% in the experiment with CHO-RMc4luc cells [1] (setting [7]).
For the compound `C[C@]12CCC(=O)C=C1CC[C@@H]1[C@@H]2[C@@H](O)C[C@@]2(C)[C@H]1CC[C@]2(O)C(=O)CO` [Hydrocortisone], the “signal intensity (RLU) compared to 40 μM dexamethasone” value in the experiment on CHO-RMc4luc cells [1] is reported as “equivalent to dexamethasone; also recorded: equal signal intensities”. Moreover, the “Δ (positive - normal) RLU” value in the experiment on CHO-RMc4luc cells [1] (setting [3]) came to 9889 RLU; with CHO-RMc4luc cells [1] (setting [4]) it was 9149 RLU; in the experiment on CHO-RMc4luc cells [1] (setting [5]) it was 9757 RLU; in the experiment on CHO-RMc4luc cells [1] (setting [6]), 8950 RLU; in the experiment with CHO-RMc4luc cells [1] (setting [7]) it was 8348 RLU. The “Δ (positive - normal) SRR % s” value turned out to be 158% in the experiment on CHO-RMc4luc cells [1] (setting [3]); 155% with CHO-RMc4luc cells [1] (setting [4]); 153% with CHO-RMc4luc cells [1] (setting [5]); 178% with CHO-RMc4luc cells [1] (setting [6]); 180% in the experiment with CHO-RMc4luc cells [1] (setting [7]).
In the case of `C[C@]12C=CC(=O)C=C1CC[C@@H]1[C@@H]2C(=O)C[C@@]2(C)[C@H]1CC[C@]2(O)C(=O)CO` [Prednisone], the “signal intensity (RLU) compared to 40 μM dexamethasone” value with CHO-RMc4luc cells [1] was “equal signal intensities”. The “Δ (positive - normal) RLU” value with CHO-RMc4luc cells [1] (setting [3]) was determined as 8717 RLU; with CHO-RMc4luc cells [1] (setting [4]), 8219 RLU; in the experiment on CHO-RMc4luc cells [1] (setting [5]), 8429 RLU; with CHO-RMc4luc cells [1] (setting [6]), 8107 RLU. In addition, the “Δ (positive - normal) SRR % s” value in the experiment with CHO-RMc4luc cells [1] (setting [3]) was found to be 150%; in the experiment with CHO-RMc4luc cells [1] (setting [4]) it was 133%; with CHO-RMc4luc cells [1] (setting [5]) it was 142%; with CHO-RMc4luc cells [1] (setting [6]), 165%.
